Measured values as given in patent US20220257529A1, “USE OF C[…] THE TREATMENT OF […] SPASMS” (GW Research Limited, priority 2019, published 2022).
“Also recorded” adds a separate entry of the source.

Key:
epileptic spasms [1] = settings: first-line treatment of epileptic spasms; cited from earlier work
epileptic spasms [2] = assay: Treatment history of enrolled patients before CBD; assay type: in vivo, human; settings: before initiation of CBD treatment
[3] = test system: other seizure types (tonic-clonic seizures); assay: Open label, expanded-access program: other seizure types; assay type: in vivo, human
Protocol: (§1) Patients were administered botanically derived purified CBD in a 100 mg/mL sesame oil-based solution at an initial dose of five milligrams per kilogram per day (mg/kg/day) in two divided doses. Dose was then increased weekly by 5 mg/kg/day to a goal of 25 mg/kg/day.
(§2) Seizure frequency, intensity, and duration were recorded by caregivers in a diary during a baseline period of at least 28 days. Changes in seizure frequency relative to baseline were calculated after 2 weeks and 1, 2, 3, 4, 6, 9 and 12 months of treatment. Epileptic spasms were counted by clusters.

[4] = test system: refractory epileptic spasms (ES); assay: Open label, expanded-access program: epileptic spasm frequency relative to baseline (caregiver diary); assay type: in vivo, human; settings: for Percent Change in Spasm Frequency, Average: average of nine patients; for Percent Change in Spasm Frequency at CBD dose, Average: average of patients
Protocol: Subjects were required to be on one or more AEDs at stable doses for a minimum of two weeks prior to baseline and to have stable vagus nerve stimulation (VNS) settings and ketogenic diet ratios for a minimum of four weeks prior to baseline.
as §1
(§3) A maximum dose of 50 mg/kg/day could be utilised for patients who were tolerating the medication but had not achieved seizure control; these patients had further weekly titration by 5 mg/kg/day.
There were nine patients in this study, and each received CBD for at least 12 months. Modifications were made to concomitant AEDs as per clinical indication.
as §2
Patients were defined as responders if they had more than 50% reduction in seizure frequency compared to baseline. […] The percent change in seizure frequency was calculated as follows: […]
The percent change reported at each time interval reflects reported seizure frequency over the past month relative to baseline. The EEG findings were correlated to the corresponding month seizure frequency change as well as the baseline seizure frequency.

[5] = Open label, expanded-access program: caregiver logs of cognitive changes, behavioural changes and adverse events; assay type: in vivo, human
Protocol: as §1, §3
During subsequent follow-up visits, parents provided weekly logs regarding cognitive changes, behavioural changes, and adverse events while taking CBD. Additionally, subjects had electroencephalogram (EEG) testing prior to and after the initiation of CBD.

## Adrenocorticotropin hormone (SYSMEHFRWGKPVGKKRRPVKVYPNGAEDESAEAFPLEF; Corticotropin; UniProt P01189 138-176, looked up) [ACTH, preferred first-line treatment of epileptic spasms]
Epileptic spasms [1]
  significant risks: increased risk of infection
Epileptic spasms [2]
  outcome of treatment before CBD: without significant benefit

## C=C(C)[C@@H]1CCC(C)=C[C@H]1c1c(O)cc(CCCCC)cc1O [CBD, cannabidiol]
[3]; after starting CBD treatment
  freedom from tonic-clonic seizures: one patient became seizure free of tonic-clonic seizures
[3]; other seizure types experienced by the patients
  frequency of other seizure types: effective in reducing the frequency of other seizure types
[4]; 10 mg/kg/day
  Responder rate at CBD dose: 66.70%
  Percent Change in Spasm Frequency at CBD dose, Average: −67.50%
[4]; 20 mg/kg/day
  Responder rate at CBD dose: 77.80%
  Percent Change in Spasm Frequency at CBD dose, Average: −67.20%
[4]; 25 mg/kg/day
  Responder rate at CBD dose: 66.70%
  Percent Change in Spasm Frequency at CBD dose, Average: −61.40%
[4]; 35 mg/kg/day
  Responder rate at CBD dose: 57.10%
  Percent Change in Spasm Frequency at CBD dose, Average: −56.00%
[4]; 45 mg/kg/day
  Responder rate at CBD dose: 80.00%
  Percent Change in Spasm Frequency at CBD dose, Average: −80.90%
[4]; 50 mg/kg/day
  Responder rate at CBD dose: 83.30%
  Percent Change in Spasm Frequency at CBD dose, Average: −50.20%
[4]; 1 month of treatment
  Responder Rate (percent of patients with a greater than 50% reduction in spasm frequency): 77.8%
[4]; 2 months of treatment
  Responder Rate (percent of patients with a greater than 50% reduction in spasm frequency): 66.7%
[4]; 2 weeks of treatment
  Responder Rate (percent of patients with a greater than 50% reduction in spasm frequency): 66.7%
[4]; 3 months of treatment
  Responder Rate (percent of patients with a greater than 50% reduction in spasm frequency): 55.6%
[4]; 6 months of treatment
  Responder Rate (percent of patients with a greater than 50% reduction in spasm frequency): 77.8%
[4]; 9 months of treatment
  Responder Rate (percent of patients with a greater than 50% reduction in spasm frequency): 77.8%
[4]; 12 months of treatment
  Responder Rate (percent of patients with a greater than 50% reduction in spasm frequency): 77.8%
[4]; after 12 months of treatment, five of nine patients
  patients spasm-free: 55.6%
[4]; after one month of CBD treatment
  patients epileptic spasm-free: One patient was epileptic spasm-free
[4]; after two months of CBD treatment
  patients epileptic spasm-free: two other patients were epileptic spasm-free
[4]; 1 month
  Percent Change in Spasm Frequency, Average: −67.20%
[4]; 2 months
  Percent Change in Spasm Frequency, Average: −64.10%
[4]; 2 weeks
  Percent Change in Spasm Frequency, Average: −67.50%
[4]; 3 months
  Percent Change in Spasm Frequency, Average: −59.00%
[4]; 6 months
  Percent Change in Spasm Frequency, Average: −73.70%
[4]; 9 months
  Percent Change in Spasm Frequency, Average: −61.53%
[4]; 12 months
  Percent Change in Spasm Frequency, Average: −51.35%
[4]; overall conclusion of the program, adjunctive to AEDs
  effect on number of epileptic spasms (in words): significantly reduce the number of epileptic spasms; also recorded: significant reduction in epileptic spasms
[4]; patients 6, 7 and 8, after 12 months of treatment
  seizure freedom in patients suffering from TSC: all three were completely seizure free
[5]; four of nine patients
  patients with caregiver-reported sustained improvements in alertness, verbal capacity and communications, cognitive availability, initiation of emotional and physical connections: 44%
[5]; patients 3 and 6 at 45 mg/kg/day and 50 mg/kg/day, reduced to 35 mg/kg/day
  adverse event leading to dose reduction: diarrhoea
[5]; treatment group of the program
  improvement in cognitive and behavioural domains (in words): significant improvement in cognitive and behavioural domains

## C=CC(N)CCC(=O)O (stereo not shown) [VGB, vigabatrin]
Epileptic spasms [1]
  significant risks: visual field defects
Epileptic spasms [2]
  outcome of treatment before CBD: lack of efficacy
